Target: T1, human brain-derived dopamine D4 receptor (Homo sapiens, UniProt P21917)
T1 construct: expressed in transfected cells; host or cells: CHO (CHO-K1) or HEK293 cells
T1 sequence (P21917 1-419): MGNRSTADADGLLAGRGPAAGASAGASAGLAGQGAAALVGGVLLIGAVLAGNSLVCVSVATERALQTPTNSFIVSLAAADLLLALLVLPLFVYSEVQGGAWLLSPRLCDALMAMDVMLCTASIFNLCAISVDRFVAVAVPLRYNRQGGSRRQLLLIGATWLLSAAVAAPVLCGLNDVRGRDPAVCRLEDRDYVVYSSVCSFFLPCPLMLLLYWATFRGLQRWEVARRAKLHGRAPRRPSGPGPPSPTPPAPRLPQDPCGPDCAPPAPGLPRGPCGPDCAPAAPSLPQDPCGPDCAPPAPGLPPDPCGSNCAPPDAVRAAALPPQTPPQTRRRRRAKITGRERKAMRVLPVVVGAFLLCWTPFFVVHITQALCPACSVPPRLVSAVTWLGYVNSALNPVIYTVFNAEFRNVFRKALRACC
Experiment: Agonistic activity in G protein dependent pathway of dopamine D4 receptor (aequorin intracellular calcium luminescence, FDSS)
Format: cell-based
Details: for EC50: concentration required to achieve a 50% response of Emax, CHO-K1 or HEK293 cells transfected with D4 receptor; for Emax: read-out: Maximal activity on D4 receptor (%)
Text: The G protein dependent pathway is a pathway for transmitting signals in cells via a second messenger by stimulating a G protein through the binding of guanosine triphosphate (GTP) to the G protein. When GPCRs are activated by the binding of a ligand, a G protein binds to the GPCRs, and thereby GTP binds to a Gα subunit that is one of G protein subunits and a Gγβ subunit is dissociated. The activated Gα subunit regulates intracellular cAMP levels by the activation or inhibition of an adenylate cyclase, and regulates intracellular calcium levels by the activation of phospholipase C to transmit signals in cells.
The agonistic activities of the present compounds in the G protein dependent pathway were evaluated on the basis of intracellular calcium levels as follows. CHO-K1 or HEK293 cell lines transfected with D4 receptor genes were seeded in a 384-well plate, and incubated in a CO2 incubator at 37° C. for 24 hours, and then a solution of the present compound in DMSO was added into cells preloaded with coelenterazine to measure the change in luminescent signals with a FDSS (Hamamatsu Photonics K.K.). […] The agonistic activity of the present compound was calculated according to the measured luminescent signals, as the maximal activity (Emax) of the present compound. EC50 value was calculated as the concentration of the present compound required to achieve a 50% response of Emax.

Row | EC50 [µM] | Emax [%] | SMILES
1 | 0.064 | 38 | Cc1c(-c2ncccc2F)nn2c1CN(Cc1ccc(C(F)F)cn1)CC2 [Example 179]
2 | 0.057 | 105 | Cc1cccc(CN2CCn3nc(-c4ncccc4C)c(C)c3C2)n1 [Example 115]
3 | 0.037 | 57 | Cc1cccnc1-c1cc2n(n1)CCN(Cc1ncn3ccccc13)C2 [Example 96]
4 | 0.102 | 40 | Cc1cccnc1-c1cc2n(n1)CCN(Cc1cccc(OC(F)(F)F)c1)C2 [Example 63]
5 | 0.252 | 48 | Cc1ncc(CN2CCn3nc(-c4ncccc4F)cc3C2)cn1 [Example 171]
6 | 0.017 | 60 | Fc1ccc2[nH]nc(CN3CCn4nc(-c5ccccn5)cc4C3)c2c1 [Example 4]
7 | 0.14 | 52 | Cc1cccnc1-c1cc2n(n1)CCN(Cc1ccc(OC(F)(F)F)cc1F)C2 [Example 66]
8 | 0.086 | 85 | FC(F)(F)c1cccnc1-c1cc2n(n1)CCN(Cc1ccccc1)C2 [Example 140, 5-Benzyl-2-[3-(trifluoromethyl)pyridin-2-yl]-4,5,6,7-tetrahydropyrazolo[1,5-a]pyrazine]
9 | 0.1 | 50 | Cc1nc2c(CN3CCn4nc(-c5ccccn5)cc4C3)cccc2[nH]1 [Example 42]
10 | 0.022 | 81 | Cc1cccnc1-c1cc2n(n1)CCN(Cc1ccc(F)cc1)C2 [Example 58]
11 | 0.116 | 65 | c1ccc(-c2cc3n(n2)CCN(Cc2ccc4[nH]ncc4c2)C3)nc1 [Example 13]
12 | 0.026 | 74 | Cc1cccc(CN2CCn3nc(-c4ncccc4F)cc3C2)n1 [Example 161]
13 | 0.046 | 54 | Cc1cccnc1-c1cc2n(n1)CCN(Cc1ccc3c(c1)NC(=O)CC3)C2 [Example 41]
14 | 0.043 | 76 | Cc1ncc(CN2CCn3nc(-c4ncccc4F)cc3C2)c(C)n1 [Example 191]
15 | 0.018 | 67 | Cc1cccnc1-c1cc2n(n1)CCN(Cc1n[nH]c3c(C)cccc13)C2 [Example 104]
16 | 0.035 | 69 | c1ccc(-c2cc3n(n2)CCN(Cc2ccc4occc4c2)C3)nc1 [Example 39]
17 | 0.02 | 54 | Cc1ccc(CN2CCn3nc(-c4ccccn4)cc3C2)nc1N [Example 98]
18 | 0.0092 | 62 | c1ccc(-c2cc3n(n2)CCN(Cc2ccc4cn[nH]c4c2)C3)nc1 [Example 15]
19 | 0.015 | 77 | Cc1ccc(CN2CCn3nc(-c4ncccc4C)cc3C2)c(N)n1 [Example 43]
20 | 0.116 | 51 | Cc1cnc(CN2CCn3nc(-c4ncccc4C)cc3C2)c(F)c1 [Example 184]
21 | 0.061 | 41 | Cc1ccc(CN2CCn3nc(-c4ncccc4F)cc3C2)cn1 [Example 50]
22 | 0.078 | 78 | Cc1cccnc1-c1cc2n(n1)CCN(Cc1nc(C)n3ccccc13)C2 [Example 85]
23 | 0.116 | 48 | Fc1cccc2[nH]nc(CN3CCn4nc(-c5ccccn5)cc4C3)c12 [Example 102]
24 | 0.084 | 72 | Cc1c(-c2ncccc2F)nn2c1CN(Cc1ccc(C(F)(F)F)cc1)CC2 [Example 83]
25 | 0.092 | 64 | Cc1cnc(CN2CCn3nc(-c4ncccc4F)cc3C2)cn1 [Example 159]
26 | 0.042 | 49 | Cc1c(-c2ccccn2)nn2c1CN(Cc1cn3c(n1)CCCC3)CC2 [Example 94]
27 | 0.058 | 62 | Cc1cccnc1-c1cc2n(n1)CCN(Cc1ccc3c(c1)N(C)C(=O)CS3)C2 [Example 77]
28 | 0.046 | 91 | Cc1ccc(CN2CCn3nc(-c4ncccc4F)c(C)c3C2)cc1 [Example 82]
29 | 0.111 | 53 | Fc1ccc(CN2CCn3nc(-c4ncccc4F)cc3C2)nc1 [Example 160]
30 | 0.138 | 51 | COc1ccccc1-c1cc2n(n1)CCN(Cc1ccc(C)nc1N)C2 [Example 16]
